Source: publication PMC3263612, “Development of an Oral Form of Azacytidine: 2′3′5′Triacetyl-5-Azacytidine” (Chemotherapy Research and Practice, 2011)
≈ marks a conversion by molar mass, not a printed value.

How the values were obtained:
[1] = Pharmacokinetics and metabolism of TAC in mice; type: in vivo, C57/BL6 mice; conditions: ACT 25 mg/kg i.v., analyte ACT
Experimental: To monitor the in vivo absorption, distribution, and metabolism of TAC, a highly sensitive LC/MS/MS analytical method was developed that allows the quantitation of concentrations as low as 10 ng/mL of TAC and its metabolites. The samples were prepared by adding 200 μL of plasma to 400 μL of cold acetonitrile, vortexed, and centrifuged at 14,000 rpm for 10 minutes. The supernatant was placed into a 10 × 75 mm glass test tube and evaporated to 50 μL under nitrogen at 37°C. The residue was then diluted with 1 mL of 2% phosphoric acid and vortexed for 10 seconds at 3,000 rpm.
Solid phase extraction was conducted using a Varian Bond Elute PLEXA PCX 1 mL columns placed on a vacuum manifold. Columns were activated by adding 1 mL of MeOH followed by 1 mL H2O and 1 mL of 2% phosphoric acid. All samples were allowed to drip by gravity flow. The extraction columns were then washed sequentially with 1 mL 2% phosphoric acid, 1 mL H2O, and 1 mL MeOH/AcCN (1/1) and eluted into a 10 × 75 mm glass test tube containing 50 μL of 25% formic acid in MeOH with 2 × 600 μL of 2% NH4OH in MeOH/AcCN (1/1). The liquid was then evaporated to dryness with nitrogen at 37°C, and 100 μL of mobile phase A was added and vortexed for 10 seconds at 3,000 rpm and transferred to LC autosampler vials at 4°C.
HPLC separation was conducted on a reverse phase C18 column (Varian Pursuit C18, 3 micron particle size; 100 mm × 2.0 mm) using a Shimadzu SIL-HTc controller with dual LC-20AD pumps and DGU-20A3 degasser. The separation was achieved using a gradient of Mobile Phase A: 0.1% Formic Acid and Mobile Phase B: 0.1% Formic Acid, 90% MeOH with a flow rate of 400 μL/min at 40°C over 10 minutes. MS/MS fragmentation was performed on an Applied Biosystems API 3200 instrument with a Turbo V Ion Spray ion source and Positive ion polarity.
To evaluate the in vivo pharmacokinetic properties of TAC, C57/BL6 female mice of 20 g body weight were dosed with 38 mg/kg TAC p.o. (equimolar dose to 25 mg/kg of ACT) or 25 mg/kg ACT i.v. via tail vein injection. TAC and ACT were solubilized in 1X PBS immediately before administration and dosed at 0.01 mL/g fasted body weight. Blood samples (two time points per animal, three animals per time point) were obtained via retro-orbital bleeding with Natelson pipettes at 0.5, 1, 2, 4, 8, and 24 hours after drug administration. The collected blood was then centrifuged for 4 minutes at 13,000 g. Plasma was immediately extracted with cold acetonitrile and stored at −80°C until LC/MS/MS analysis.
Noncompartmental plasma pharmacokinetic parameters for TAC prodrug and ACT after oral TAC or i.v ACT administrations were estimated using the sparse sampling option in WinNonlin Software version 4.1 (Pharsight Corp., Mountain View, Calif, USA). Briefly, the WinNonlin sparse sampling option applies the linear trapezoidal rule for area under the concentration-time curve (AUC) calculations and generates a standard error for the mean AUC estimate that accounts for correlations in the data resulting from repeated sampling of individual mice. Parameters of interest included the AUC from time 0 to the last measurable concentration (AUClast), observed peak concentration after oral administration (Cmax), estimated peak concentration after i.v. administration (C0), mean residence time to the last measurable concentration (MRTlast), and the half-life of the terminal phase (T1/2). To assess the multiphasic decline in plasma concentrations, an alpha (T1/2α) half-life was also estimated using a log-linear regression of the mean ACT concentrations through 2 hours after dosing.

global DNA methylation = test: Global methylation detection assay in mouse tissues; type: in vivo, C57BL6 mice; set-up: unit not given here; conditions: 5 days ACT 25 mg/kg or TAC 38 mg/kg p.o., dot blot
Experimental: 24 hours following drug administration, snap-frozen mouse tissues were homogenized and genomic DNA isolated using Promega's Wizard Genomic DNA Purification Kit. 100 ng of EcoRI linearized genomic DNA was spotted onto PVDF membrane. The membrane was air-dried and repermeabilized according to manufacturer's instructions. Nonspecific binding was blocked using 5% milk in PBS-T and washed twice in PBS-T for 5 minutes. The membrane was incubated with primary antibody (1 : 1000 anti-5-methylcytosine in PBS-T, Calbiochem) for 1 hour then washed four times for five minutes each with PBS-T. The membrane was incubated with the HRP-conjugated secondary antibody for 1 hour and washed four times for five minutes each with PBS-T. Signal intensity following ECL detection was quantitated using KODAK Image Station software. Assay results were confirmed using EpiGentek's Methylamp Global DNA Methylation Quantification Kit per manufacturer's instructions.
In an in vivo experiment designed to evaluate the effect of a prolonged administration of TAC on global methylation, TAC (38 mg/kg p.o.) or ACT (25 mg/kg i.p.) diluted in PBS was administered to C57BL6 mice every 24 hours for 5 consecutive days (four animals per group). […] The positive results in gut and spleen were confirmed using the EpiGentek's Methylamp Global DNA Methylation Quantification Kit.

L1210 cells = system: L1210 cells; set-up: method as in PMID 6083417; conditions: published value, confirmed by MTS assay; cited from earlier work
[2] = Drug stability at pH 1, 3, 5 and 7.4 (LC/MS/MS); type: physicochemical; conditions: throughout the pH range, maximum stability at pH 1; data not shown
Experimental: ACT and TAC stabilities were determined after incubation at pH1 (2% Phosphoric acid), pH3 (0.1% Formic Acid), pH5 (K3PO4), and pH7.4 (Dulbecco's PBS). 100 ng of each compound was resuspended in 1.2 mL total volume, and 200 μL samples taken at 1, 3, 6, 29, and 48 hr. Each pH point was repeated 6 times in 2 dram vials with Teflon-lined screw caps at room temperature. Samples were extracted by solid-phase extraction using 100 ng decitabine as an internal standard and analyzed by tandem mass spectroscopy as described above.

P15 promoter methylation = test: p15INK4B methylation status (EpiTect Methyl qPCR) in L1210 cells; type: cell-based, Mouse; conditions: 48 hours
Experimental: Mouse leukemia cells (L1210) were purchased from ATCC. The published IC50 value for ACT (0.2 uM) was first confirmed using the Promega CellTiter MTS assay. […] Genomic DNA was isolated after 48 hours using the Sigma GenElute Genomic DNA Kit, including the RNase treatment step to ensure no RNA carryover. The methylation status of p15INK4B was determined using a predesigned primer set and the EpiTect Methyl qPCR Assays MethylScreen technology (Qiagen, Frederick, Md, USA).

[3] = system: L1210 lymphocytic leukemia; test: In vivo L1210 lymphocytic leukemia model; set-up: species or system BDF1 mice
Experimental: The in vivo L1210 lymphocytic leukemia model in C57BL/6 × DBA/2 F1(BDF1) female mice was used to evaluate the in vivo antiproliferative effect of TAC. L1210 cells were carried in BDF1 mice by weekly i.p. (intraperitoneal) passages. Leukemia cells from ascites fluid were diluted appropriately in […] medium and injected i.p. (1×10^5 cells/0.1 mL/mouse) into recipient mice. A daily oral administration of TAC (38 mg/kg via oral gavage) or ACT (25 mg/kg administered i.p.) diluted in PBS was given to leukemic BDF1 mice starting 24 hours from the inoculation of L1210 cells for a total of 5 days. Compounds were prepared fresh daily. A group of untreated leukemic mice received sterile water for injections and served as controls.

[4] = LogP determination, shake-flask water/octanol; type: physicochemical; conditions: un-ionized, read-out: experimental LogP
Experimental: The OSIRIS Property Explorer software was used to generate initial cLogP values. […] The pH of the water was 2 units above the pKa of the compound, preventing ionization. The experiment was conducted using the shake-flask method, after allowing octanol and water to equilibrate for 24 hours at 25°C. The initial drug concentration in water was 0.2 mM. Tubes were rotated at a 45 degree angle for 10 minutes with a 3 second rotation. The test was performed in a constant environment of 20°C–25°C. Tubes were centrifuged at 1000 g for 10 minutes, and the octanol phase was extracted. The UV/Visible absorption spectrum was evaluated from 550 nm to 210 nm to determine the absorption maximum. The analyte concentration was determined and the LogP calculated: Log = log(concentration in octanol/concentration in water).

[5] = oral film-coated formulation, 80 mg dose, cited from earlier work
Solubility at various pH = type: physicochemical
Experimental: The solubility of TAC in comparison to ACT was evaluated at various pH. TAC and ACT were equally soluble at pH1 (40 mg/mL) and pH3 (25 mg/mL), while TAC was more soluble than ACT at pH5 (30 mg/mL versus 15 mg/mL) and pH7 (30 mg/mL versus 10 mg/mL). […] At pH 1, we observed a moderate hydrolysis of TAC (26%) to the mono- and diesters in the first 3 hours of incubation increasing to 60% after 6 hrs. However, after 24, 99% of TAC was hydrolyzed, including 46% to the parent compound, ACT.

[6] = female, C57/BL6, mouse, plasma, iv
[7] = tissue 24 hours after treatment

## Nc1ncn([C@@H]2O[C@H](CO)[C@@H](O)[C@H]2O)c(=O)n1 [ACT, 5-azacitidine]
[1]; data through 2 hours
  T1/2α: 0.32 h
[1]; [6]
  Cmax: 81.1 µM
  MRT last: 1.1 h
[1]; female, C57/BL6, mouse, plasma, iv, estimated peak concentration
  C0: 212 µM
[1]; female, C57/BL6, mouse, plasma, iv, terminal phase
  half-life: 6.8 h
[1]; female, C57/BL6, mouse, plasma, iv, mean (standard error)
  AUC(0-t): 126 µM·h
Global DNA methylation; four animals
  densitometry of methylation level, Gut Average: 29
  densitometry of methylation level, Spleen Average: 50
Global DNA methylation; [7]
  densitometry of methylation level, Gut.1: 37
  densitometry of methylation level, Gut.2: 14
  densitometry of methylation level, Gut.3: 34
  densitometry of methylation level, Gut.4: 33
  densitometry of methylation level, Spleen.1: 54
  densitometry of methylation level, Spleen.2: 71
  densitometry of methylation level, Spleen.3: 48
  densitometry of methylation level, Spleen.4: 29
L1210 cells
  IC50: 0.2 µM
[2]
  stability of azacitidine in solution: significant degradation
P15 promoter methylation; 0.1 uM ACT
  decrease of P15 promoter methylation: 39% (±3)
P15 promoter methylation; 10 uM ACT
  decrease of P15 promoter methylation: 49% (±17)
[3]; azacitidine 25 mg/kg i.p. (maximum tolerated dose) daily for 5 days
  survival: 17 days
[3]; azacitidine 25 mg/kg i.p. daily for 5 days
  increased lifespan: 112%
[3]; azacitidine 25 mg/kg i.p., L1210-bearing mice
  weight reduction: 16%
[4]
  logP: -2.32
[5]; four human subjects
  bioavailability: 17.4%
[5]; human
  mean plasma half-life: 0.39 h
Solubility at various pH; pH 1, pH1
  solubility: 40 mg/mL (≈ 164 mM)
Solubility at various pH; pH 3, pH3
  solubility: 25 mg/mL (≈ 102 mM)
Solubility at various pH; pH 5, pH5
  solubility: 15 mg/mL (≈ 61.4 mM)
Solubility at various pH; pH 7, pH7
  solubility: 10 mg/mL (≈ 40.9 mM)
